Results taken from article PMC11137182, “Selective and brain-penetrant ACSS2 inhibitors target breast cancer brain metastatic cells” (Frontiers in Pharmacology, 2024).

Assays:
hACSS1 = molecular target: T1, hACSS1 (Homo sapiens, UniProt Q9NUB1); experiment: SPR binding to immobilized hACSS1; details: single concentration 25μM injection
T1 construct: purchased MyBioSource (www.mybiosource.com)
T1 sequence (Q9NUB1 38-689): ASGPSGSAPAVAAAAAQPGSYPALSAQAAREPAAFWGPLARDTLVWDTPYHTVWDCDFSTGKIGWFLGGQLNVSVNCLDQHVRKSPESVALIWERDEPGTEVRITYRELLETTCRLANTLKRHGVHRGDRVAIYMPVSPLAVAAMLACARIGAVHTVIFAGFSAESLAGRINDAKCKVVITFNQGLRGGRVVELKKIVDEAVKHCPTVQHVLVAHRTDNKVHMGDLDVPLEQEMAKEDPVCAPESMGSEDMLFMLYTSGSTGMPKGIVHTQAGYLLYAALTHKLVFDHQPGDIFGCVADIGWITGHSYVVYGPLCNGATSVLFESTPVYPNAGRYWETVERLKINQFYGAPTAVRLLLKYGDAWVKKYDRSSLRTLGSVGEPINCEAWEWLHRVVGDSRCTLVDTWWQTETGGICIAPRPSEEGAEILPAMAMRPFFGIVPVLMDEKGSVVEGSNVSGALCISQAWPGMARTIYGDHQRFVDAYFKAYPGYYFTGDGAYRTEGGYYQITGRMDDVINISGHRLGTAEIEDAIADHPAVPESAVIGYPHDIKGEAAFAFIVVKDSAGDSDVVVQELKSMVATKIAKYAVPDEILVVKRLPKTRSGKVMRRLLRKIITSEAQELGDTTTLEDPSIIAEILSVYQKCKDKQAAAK
Description: All binding assays were performed on a ProteOn XPR36 SPR Protein Interaction Array System (Bio-Rad Laboratories, Hercules, CA, United States). The instrument temperature was set at 25°C for all kinetic analyses. ProteOn GLH sensor chips were preconditioned with two short pulses each (10 s) of 50 mM NaOH, 100 mM HCl, and 0.5% sodium […]. Then, the system was equilibrated with running buffer (1x PBS pH 7.4, 3% DMSO, and 0.005% polysorbate 20). The surface of a GLH sensor chip was activated with a 1:100 dilution of a 1:1 mixture of 1-ethyl-3-(3-dimethylaminopropyl) carbodiimide hydrochloride (0.2 M) and sulfo-N-hydroxysuccinimide (0.05 M). Immediately after chip activation, the human ACSS2 or hACSS1 proteins were prepared at a concentration of 10 μg/mL in 10 mM sodium acetate, pH 5.5, and injected across ligand flow channels for 5 min at a flow rate of 30 μL/min. Then, after unreacted protein had been washed out, excess active ester groups on the sensor surface were capped by a 5 min injection of 1M ethanolamine HCl (pH 8.0) at a flow rate of 5 μL/min. […] Data were analyzed using the ProteOn Manager Software version 3.0 (Bio-Rad). […]

[1] = BBB permeability in vivo (LC-MS, brain over blood); design: species or system BalbC mice; details: mice, 50 mg/kg intraperitoneal, 30 min (AD-5584) or 1 h (AD-8007, VY-3-135)
Description: Human ACSS2 inhibitors were prepared in 10 mg/mL saline solution. BalbC 4–6 week-old mice were weighed and injected with 50 mg/kg or 100 mg/kg of drug saline solution via intraperitoneal injection. After 30 min or 60 min, mice treated with AD-5584 or AD-8007 and VY-3-135 were placed in isoflurane, and blood was extracted and perfused via intracardiac injection. Following perfusion, mice were decapitated, and their brains were rapidly removed into ice-cold PBS. For analysis of blood samples, 200 µL of blood was transferred and allowed to clot for 15 min at room temperature. Samples were precipitated at 16000xg for 1 min, and 50 µL of serum was transferred. To serum, 200 µL of methanol was added, and samples were centrifuged at 16000 g for 5 min. The supernatant was analyzed by LCMS. For analysis of brain samples, brains were homogenized via bead beating using four 2.3 mm stainless steel beads in 1 mL of MeOH and 0.5 mL of H2O. After centrifugation for 15 min at 3000xg, the supernatant was analyzed by LCMS. LCMS was performed on an Acquity I-Class UPLC system coupled to a Synapt G2Si HDMS mass spectrometer in positive ion mode with a heated electrospray ionization (ESI) source in a Z-spray configuration. […] Data was analyzed using Waters MassLynx and Waters Unifi. Calibration curves of authentic standards were used for quantification.

N[C@H](C(=O)N1CCCC(c2ccccc2)(c2ccccc2)C1)C1CC1 [AD-8007]
binding to hACSS1 (specificity) (hACSS1): specifically bind ACSS2 and not the mitochondrial isoform hACSS1 | level of drug in the brain over blood [1]: detected at significantly higher levels in the brain compared to VY-3-135
